{
  "source": "patent US11639496B2",
  "about": "“Reducing fratricide of immune cells expressing NKG2D-based receptors” (CELYAD S.A, priority 2017, dated 2023)",
  "type_in_all_cases": "cell-based, human",
  "key": {"K562 or PANC-1 cells": {"system": "K562 or PANC-1 cells", "assay": "Cytokine release assay: IFN-γ ELISA after co-culture of NKR-2 T cells with cancer cells", "conditions": "cells cultured with PI3K inhibitor (5 μM CAL101), compared with blocking NKG2D antibody", "procedure": "Fresh NKR-2 T cells and/or control tCD19 cells were incubated with K562 or PANC-1 cells at a ratio of 1:1 in X-Vivo 15 containing 5% HS. Following an incubation of 24 h supernatants were harvested and IFN-γ measured by ELISA (R&D Systems, SIF50) according to manufacturer's protocol. As a positive control cells were activated with PMA (Sigma-Aldrich, P8139-5MG) and ionomycin (Sigma-Aldrich, 10634-1MG). To assess the background levels of activation the cells received no stimulus.\nAntibody Inhibition Assay NKR-2 T cells were incubated with 1 μg/mL of NKG2D blocking antibody, isotype control or no antibody for 24 hours and subsequently NKR-2 T cells mediated secretion of IFN-γ measured. Similarly, NKR-2 cells were co-cultured with cancer cells in the presence of antibody and cytokine secretion measured."}, "NKG2D (CD314)": {"system": "NKG2D (CD314)", "assay": "Flow cytometry of NKG2D (CD314) cell surface expression on NKR-2 T cells", "procedure": "(§1) (A) MFI of NKG2D expression on NKR-2 T cells treated or not with increasing concentrations of LY294002. Data shown are mean±SD of N=3 independent donors. (B) Transduced T cells were cultured in complete X-vivo (100 IU/ml IL-2) supplemented or not with increasing concentrations of LY294002 for expansion. T cells were analyzed 96 h after seeding for fold expansion relative to the initial cell seeding density. Data shown are mean±SD of N=3 independent donors. (C) Viability of cells after cryopreservation. NKR-2 T cells were produced in presence of increasing concentration of LY294002. After production, cells were harvested, washed, and formulate for cryopreservation. After cryopreservation, cells were thawed using a water bath and resuspended in Plasmalyte/Human Serum Albumin (HSA) 5%. Cells viability was directly assessed after thawing (T0 h) or after 6 hours at 4° C. in Plasmalyte/HSA5% (T6 h) (N=[…]) (D) NKR-2 T cells were produced in presence of increasing concentration of LY294002. […] After 48 hours, cell viability was assessed using trypan blue staining (N=3) and normalized for the number of cells at cryopreservation (E) tCD19 T cells were co-cultured with NKR-2 T cells generated from the same donor in presence of increasing concentrations of blocking Ab (from 0 (−) to 10 μg/ml). […] Following a 24 h incubation, supernatants were harvested and IFN-γ measured (N=3). […]"}, "NKR-2 T cells": {"system": "NKR-2 T cells", "assay": "Fold expansion / cell yield of NKR-2 (NKG2D CAR) T cells during manufacturing culture", "conditions": "compared to cells without inhibition of NKG2D signaling", "procedure": "as §1, with “After cryopreservation, cells were thawed using a water bath and resuspended in Plasmalyte/Human Serum Albumin (HSA) 5%.” left out\nFIG. 9: NKR-2 T cells Ab blockade process adaptation restores CD4/CD8 ratio. […] PANC-1 viability was assessed every 2 hours by the IncuCyte S3 device. […]"}},
  "data": [
    {"smiles": "CC[C@H](Nc1ncnc2[nH]cnc12)c1nc2cccc(F)c2c(=O)n1-c1ccccc1", "note": "[Cal-101, idelalisib]", "values": [
      {"measurement": "IFN gamma secretion post co-culture with K562 cells", "setting": "K562 or PANC-1 cells", "result": "produce more interferon"}
    ]},
    {"smiles": "O=c1cc(N2CCOCC2)oc2c(-c3ccccc3)cccc12", "note": "[LY294002]", "values": [
      {"measurement": "concentration at which NKG2D expression reaches the level of control tCD19 T cells", "setting": "NKG2D (CD314)", "result": 10, "unit": "µM"}
    ]},
    {"smiles": "Nc1cccc(-c2cc3c(Oc4cccc(O)c4)ncnc3[nH]2)c1", "note": "[TWS119]", "values": [
      {"measurement": "expansion with downstream inhibitors of the PI3K pathway", "setting": "NKR-2 T cells", "result": "expansion is increased"}
    ]}
  ]
}
